One molecule from patent EP4583874B1, “MULTITARGET NUCLEAR RECEPTOR LIGANDS BASED ON 2-(4-(QUINOLIN-2-YLOXY)PHENOXY)PROPANOIC ACID AND 2-(4-(QUINOXALIN-2-YLOXY)PHENOXY)PROPANOIC ACID FOR THE TREATMENT OF METABOLIC AND LIVER DISEASES” (CHARLES UNIVERSITY, FACULTY OF PHARMACY IN HRADEC KRALOVE, priority 2022, dated 2024) can be followed below.

The target in one data set is T1, TGR5 (Homo sapiens, UniProt Q8TDU6).
T1 sequence (Q8TDU6 1-330): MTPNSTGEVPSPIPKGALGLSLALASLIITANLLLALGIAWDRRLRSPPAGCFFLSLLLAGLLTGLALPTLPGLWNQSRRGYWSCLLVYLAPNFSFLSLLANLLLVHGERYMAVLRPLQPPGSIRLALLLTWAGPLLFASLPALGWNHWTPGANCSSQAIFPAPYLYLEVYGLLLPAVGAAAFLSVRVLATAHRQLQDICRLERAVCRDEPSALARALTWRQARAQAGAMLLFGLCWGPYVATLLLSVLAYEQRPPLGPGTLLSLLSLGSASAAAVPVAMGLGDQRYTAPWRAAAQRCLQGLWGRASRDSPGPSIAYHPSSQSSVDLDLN
The experiment in a line: TGR5 luciferase reporter assay. It counts as cell-based. The settings on record: relative activation to LCA 10 µM (100%), negative value indicates inverse agonism. On the technique in general: Reporter assays use an easily measured gene product as a stand-in for the process of interest.

Data set [1] has as its system C57BL/6J mice fed with high fat diet. Kind of data set: Proof-of-concept study in mice fed with high fat diet: plasma biochemistry, weights, IPGTT. It counts as in vivo. The settings on record: HFD mice; for glucose plasma levels in Intraperitoneal Glucose Tolerance Test (IPGTT): IPGTT 1.5 g/kg BW. The text has this: Control group received a chow diet.
In the proof-of-concept study, after a 1-week of adaptation period, male C57BL/6J mice were randomly divided into three groups: (i) mice fed a chow diet (control; PicoLab RD 20, LabDiet) and tap water (n=4) or (ii) mice fed a high-fat diet (HFD) consisting of Western diet (AIN-76A WD, TestDiet, 20 % fat) and glucose (18.1 g/L) with fructose (24 g/L) provided in water. At week 21 on HFD diet, mice were randomly assigned into two experimental groups (10 and 11 mice per group): (ii) group on HFD, (iii) group on HFD administered with 10 mg/kg compound of EXAMPLE 37 as a salt (hydrochloride) (HFD +comp. 37). Compound of EXAMPLE 37or vehicle (1% methylcellulose) were administered once daily by oral gavage for another 3 weeks together with diets.
The i.p. Glucose tolerance test has been performed seven days before the termination of the study. For the purpose, […] of glucose dissolved in saline has been applied and blood was sampled in four intervals up to 120 minutes form tail vein. A standard glucometer was used to measure glycemia.
For biochemistry analyses, plasma liver enzyme activities were analyzed in plasma by a commercial Preventive Care Profile Plus test with Vetscan 2 device (Abaxis). Level of cholesterol and triglycerides in plasma and liver were measured by commercial kits (Erba Lachema s.r.o., Brno, Czech Republic).
Animals were sacrificed by anesthesia overdose. Plasma samples were obtained from the whole blood by centrifugation at 2,000 × g for 5 min at 4°C. The liver, gallbladder and abdominal fat were excised, weighted and immediately frozen in liquid nitrogen. All samples were stored at -80°C until analysis.

Data set [2] concerns C57BL/6J mice fed with high-fat diet. The experiment in a line: Proof-of-concept study in mice fed with high-fat diet, liver mRNA expression by RT-qPCR. It is filed as in vivo. The settings on record: 10 mg/kg p.o. daily for three weeks, HFD mice. How it is done:
The compound 37 has been applied daily (10 mg/kg) via p.o. gavage for three weeks to wild-type C57BL/6J mice fed with high-fat diet (HFD) for 24 weeks. After 24 h from the last application, mice were sacrificed, and live samples collected on dry ice for total RNA isolation. RT-qPCR experiments have been performed with TaqMan probes and expression has been quantified using a reference gene (Gapdh) and delta-delta method. Data represents fold up or downregulation in mRNA expression for tested genes related to the expression in vehicle-treated control animals. * - denotes statistically significant (p<0.05) up-regulation in animals treated with the compound of EXAMPLE 37 in comparison to animals fed with HFD only (n ≥ 10 in each groups). ^f - statistically significant effect of HFD diet on a gene expression. […]
Expressions of NR target genes mRNAs in livers of mice or in 3D cultured (spheroids) primary human hepatocytes have been performed using TaqMan probes-based RT-qPCR after isolation of total RNA by Trizol® (ThermoFischer Scientific) reagent and reverse transcription synthesis of cDNA in Quant Studio cycler. […] Delta-delta method and Gapdh or TATA-box binding protein (TBP) housekeeping genes were used for relative quantification. Data are expressed as fold up-/down-regulation compared to vehicle-treated samples/mice.
(Real-time PCR tracks product formation cycle by cycle.)

[3] abbreviates: 10 mg/kg p.o. daily for 3 weeks (hydrochloride), vs HFD group.

A word on the Emax: it is the size of the effect at its maximum, as opposed to the concentration needed. At TGR5, `C[C@@H](Oc1ccc(Oc2ccc3c(Cl)cccc3n2)cc1)C(=O)O` [compound 37, (R)-2-(4-((5-Chloroquinolin-2-yl)oxy)phenoxy)propanoic acid] returned a maximum response (Emax) at 10 µM of 10%. In data set [1] (setting [3]), the ALP plasma levels entry is recorded as “increases”, the ALT plasma levels result is recorded as “improves”, the AST plasma levels entry was “improves” and the “plasma triglyceride (TG) levels” value is reported as “significantly decreases”. Also, the “abdominal fat weight (AFW)” value in data set [1] (10 mg/kg p.o. daily for 3 weeks, effect not statistically significant) was “decreased”. Also, the “body weight (BW)” value in data set [1] (10 mg/kg p.o. daily, after three weeks of treatment) is listed as “significantly decreased”. Further, the “glucose plasma levels in Intraperitoneal Glucose Tolerance Test (IPGTT)” value in data set [1] (after 15 minutes, 10 mg/kg p.o. daily) was “significantly decreased”. Moreover, in data set [1] (other intervals, 10 mg/kg p.o. daily), the “glucose plasma levels in Intraperitoneal Glucose Tolerance Test (IPGTT)” value is given as “the decrease was not statistically significant”. Further, the “key genes of gluconeogenesis” value in data set [2] is given as “down-regulated”. Also, the “key genes involved in fatty acid (beta) oxidation (Ucp2, Hadha and Hadha) in mouse livers” value in data set [2] (vs HFD only) was “up-regulates”.
